Legend:
Assay type in all cases: in vivo
[1] = tested on: redroot pigweed (Amaranthus retroflexus, AMARE); assay: Pre-emerge test, greenhouse herbicide activity screening; conditions: pre-emerge, phytotoxicity rating 0-100 at 14 days after application
Outline: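 Sandy loam pots; pre-emerge: sown 1 d pre-spray, surface-watered after, then bottom-watered. Post-emerge: sown 8–21 d before, 2–3 leaf stage, + 0.25% v/v NIS, bottom-watered. Acetone, 187 l/ha track spray, 15–1000 g ai/ha. 0–100 injury score, day 14.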

[2] = tested on: barnyardgrass (Echinochloa crus-galli, ECHCG); assay: as above; conditions: pre-emerge, phytotoxicity rating 0-100 at 14 days after application
Outline: (§1)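 Compounds in acetone were track-sprayed at 15–1000 g ai/ha: pre-emergence onto soil sown the previous day, then top-watered to incorporate and later bottom-watered; post-emergence onto 2–3 leaf plants with 0.25% v/v surfactant, bottom-watered only. Ratings on a 0–100 phytotoxicity scale were taken at day 14.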

[3] = tested on: green foxtail (Setaria viridis, SETVI); assay: as above; conditions: pre-emerge, phytotoxicity rating 0-100 at 14 days after application
Outline: as §1

[4] = tested on: ivyleaf morningglory (Ipomoea hederacea, IPOHE); assay: as above; conditions: pre-emerge, phytotoxicity rating 0-100 at 14 days after application
Outline: as §1

[5] = tested on: johnsongrass (Sorghum halepense, SORHA); assay: as above; conditions: pre-emerge, phytotoxicity rating 0-100 at 14 days after application
Outline: as §1

[6] = tested on: lambsquarters (Chenopodium album, CHEAL); assay: as above; conditions: pre-emerge, phytotoxicity rating 0-100 at 14 days after application
Outline: as §1

[7] = tested on: large crabgrass (Digitaria sanguinalis, DIGSA); assay: as above; conditions: pre-emerge, phytotoxicity rating 0-100 at 14 days after application
Outline: as §1

[8] = tested on: sicklepod (Cassia obtusifolia, CASOB); assay: as above; conditions: pre-emerge, phytotoxicity rating 0-100 at 14 days after application
Outline: as §1

[9] = tested on: velvetleaf (Abutilon theophrasti, ABUTH); assay: as above; conditions: pre-emerge, phytotoxicity rating 0-100 at 14 days after application
Outline: as §1

[10] = tested on: field corn (Zea mays L., var. Dekalb 535, CORN); assay: Pre-emerge test, crop safety; conditions: crop damage, pre-emerge, phytotoxicity rating 0-100 at 14 days after application
Outline: (§2)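 Compounds in acetone were track-sprayed at 15-1000 g ai/ha (187 l/ha) on sandy loam pots: pre-emerge one day after seeding, post-emerge at 2-3 leaf stage with 0.25% v/v non-ionic surfactant. Phytotoxicity was rated 14 days later on a 0 (no damage) to 100 (complete death) scale.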

[11] = tested on: upland rice (Oryza sp., var. Tebonnet, RICE); assay: Pre-emerge test, crop safety; conditions: crop damage, pre-emerge, phytotoxicity rating 0-100 at 14 days after application
Outline: as §2

[12] = tested on: barnyardgrass (Echinochloa crus-galli, ECHCG); assay: Post-emerge test, greenhouse herbicide activity screening; conditions: post-emerge, phytotoxicity rating 0-100 at 14 days after application
Outline: (§3)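 Applied at 15–1000 g ai/ha from acetone in 187 l/ha spray volume. Post-emergence applications included 0.25% v/v non-ionic surfactant and reached plants sown 8–21 days before. Pre-emergence applications were incorporated by surface watering. Efficacy or crop damage was rated on a 0–100 scale after 14 days.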

[13] = tested on: green foxtail (Setaria viridis, SETVI); assay: as above; conditions: post-emerge, phytotoxicity rating 0-100 at 14 days after application
Outline: as §3

[14] = tested on: ivyleaf morningglory (Ipomoea hederacea, IPOHE); assay: as above; conditions: post-emerge, phytotoxicity rating 0-100 at 14 days after application
Outline: as §3

[15] = tested on: johnsongrass (Sorghum halepense, SORHA); assay: as above; conditions: post-emerge, phytotoxicity rating 0-100 at 14 days after application
Outline: as §3

[16] = tested on: lambsquarters (Chenopodium album, CHEAL); assay: as above; conditions: post-emerge, phytotoxicity rating 0-100 at 14 days after application
Outline: as §3

[17] = tested on: large crabgrass (Digitaria sanguinalis, DIGSA); assay: as above; conditions: post-emerge, phytotoxicity rating 0-100 at 14 days after application
Outline: as §3

[18] = tested on: redroot pigweed (Amaranthus retroflexus, AMARE); assay: as above; conditions: post-emerge, phytotoxicity rating 0-100 at 14 days after application
Outline: as §3

[19] = tested on: sicklepod (Cassia obtusifolia, CASOB); assay: as above; conditions: post-emerge, phytotoxicity rating 0-100 at 14 days after application
Outline: as §3

[20] = tested on: velvetleaf (Abutilon theophrasti, ABUTH); assay: as above; conditions: post-emerge, phytotoxicity rating 0-100 at 14 days after application
Outline: as §3

[21] = tested on: field corn (Zea mays L., var. Dekalb 535, CORN); assay: Post-emerge test, crop safety; conditions: post-emerge, crop damage rating 0-100 at 14 days after application
Outline: (§4)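 Rating: 0–100 visual injury, 14 DAA. Application: acetone, 187 l/ha, 15–1000 g ai/ha, flat-fan track sprayer with nozzle 40–45 cm above soil or canopy. Post-emerge runs used 0.25% v/v surfactant on 2–3 leaf plants.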

[22] = tested on: upland rice (Oryza sp., var. Tebonnet, RICE); assay: Post-emerge test, crop safety; conditions: post-emerge, crop damage rating 0-100 at 14 days after application
Outline: as §4

Structure (SMILES): CC(C)Oc1c(Cl)cc(F)c(N2C(=O)C3=C(CCCC3)C2=O)c1NC(=O)c1ccc(F)cc1F [8-18]
- Pre-emerge Herbicidal Activity AMARE ([1]; rate 63 g ai/ha): 60
- Pre-emerge Herbicidal Activity AMARE ([1]; rate 250 g ai/ha): 100
- Pre-emerge Herbicidal Activity ECHCG ([2]; rate 63 g ai/ha): 10
- Pre-emerge Herbicidal Activity ECHCG ([2]; rate 250 g ai/ha): 90
- Pre-emerge Herbicidal Activity SETVI ([3]; rate 63 g ai/ha): 50
- Pre-emerge Herbicidal Activity SETVI ([3]; rate 250 g ai/ha): 100
- Pre-emerge Herbicidal Activity IPOHE ([4]; rate 63 g ai/ha): 0
- Pre-emerge Herbicidal Activity IPOHE ([4]; rate 250 g ai/ha): 30
- Pre-emerge Herbicidal Activity SORHA ([5]; rate 63 g ai/ha): 0
- Pre-emerge Herbicidal Activity SORHA ([5]; rate 250 g ai/ha): 50
- Pre-emerge Herbicidal Activity CHEAL ([6]; rate 63 g ai/ha): 70
- Pre-emerge Herbicidal Activity CHEAL ([6]; rate 250 g ai/ha): 100
- Pre-emerge Herbicidal Activity DIGSA ([7]; rate 63 g ai/ha): 10
- Pre-emerge Herbicidal Activity DIGSA ([7]; rate 250 g ai/ha): 80
- Pre-emerge Herbicidal Activity CASOB ([8]; rate 63 g ai/ha): 0
- Pre-emerge Herbicidal Activity CASOB ([8]; rate 250 g ai/ha): 60
- Pre-emerge Herbicidal Activity ABUTH ([9]; rate 63 g ai/ha): 90
- Pre-emerge Herbicidal Activity ABUTH ([9]; rate 250 g ai/ha): 100
- Pre-emerge Herbicidal Activity CORN ([10]; rate 63 g ai/ha): 0
- Pre-emerge Herbicidal Activity CORN ([10]; rate 250 g ai/ha): 10
- Pre-emerge Herbicidal Activity RICE ([11]; rate 63 g ai/ha): 10
- Pre-emerge Herbicidal Activity RICE ([11]; rate 250 g ai/ha): 30
- Post-emerge Herbicidal Activity ECHCG ([12]; 63 g ai/ha): 10
- Post-emerge Herbicidal Activity ECHCG ([12]; 250 g ai/ha): 30
- Post-emerge Herbicidal Activity SETVI ([13]; 63 g ai/ha): 30
- Post-emerge Herbicidal Activity SETVI ([13]; 250 g ai/ha): 30
- Post-emerge Herbicidal Activity IPOHE ([14]; 63 g ai/ha): 50
- Post-emerge Herbicidal Activity IPOHE ([14]; 250 g ai/ha): 60
- Post-emerge Herbicidal Activity SORHA ([15]; 63 g ai/ha): 10
- Post-emerge Herbicidal Activity SORHA ([15]; 250 g ai/ha): 30
- Post-emerge Herbicidal Activity CHEAL ([16]; 63 g ai/ha): 70
- Post-emerge Herbicidal Activity CHEAL ([16]; 250 g ai/ha): 80
- Post-emerge Herbicidal Activity DIGSA ([17]; 63 g ai/ha): 10
- Post-emerge Herbicidal Activity DIGSA ([17]; 250 g ai/ha): 20
- Post-emerge Herbicidal Activity AMARE ([18]; 63 g ai/ha): 100
- Post-emerge Herbicidal Activity AMARE ([18]; 250 g ai/ha): 100
- Post-emerge Herbicidal Activity CASOB ([19]; 63 g ai/ha): 30
- Post-emerge Herbicidal Activity CASOB ([19]; 250 g ai/ha): 40
- Post-emerge Herbicidal Activity ABUTH ([20]; 63 g ai/ha): 100
- Post-emerge Herbicidal Activity ABUTH ([20]; 250 g ai/ha): 100
- Post-emerge Herbicidal Activity CORN ([21]; 63 g ai/ha): 5
- Post-emerge Herbicidal Activity CORN ([21]; 250 g ai/ha): 30
- Post-emerge Herbicidal Activity RICE ([22]; 63 g ai/ha): 50
- Post-emerge Herbicidal Activity RICE ([22]; 250 g ai/ha): 60

Source: patent US6355799B1, “Substituted benzene compounds, process for their preparation, and herbicidal and defoliant compositions containing them” (ISK Americas Incorporated, priority 1997, dated 2002)
